In patent US20230338647A1, “SUBCUTANEOUSLY IMPLANTED DEVICE FOR GASTROINTESTINAL ADMINISTRATION OF SUBSTANCES” (Endopump Ltd., priority 2018, published 2023):
Values belong to the compound of their own block, whether it stands above or below them.

Assays:
[1] = Dissolution of L-DOPA/carbidopa/ascorbic acid mixture in 0.2 N HCl; format: physicochemical; settings: 200 mg L-DOPA, 50 mg carbidopa, 2.5 mg ascorbic acid in 3.5 ml of 0.2 N HCl, vortexed and sonicated
Experimental: 3.5 ml of 0.2 N HCl were added to 200 mg of L- DOPA, 50 mg of carbidopa and 2.5 mg of ascorbic acid and the mixture was vortexed and then sonicated. […] Then 1N HCl was added dropwise till all L-DOPA was dissolved.

[2] = Solubility of levodopa esters and carbidopa propyl ester in water acidified with acetic acid; format: physicochemical
Experimental: Without limitation, in one example, substance 14 may include several levodopa esters, including the ethyl ester, propyl ester, isopropyl ester and butyl ester. In experiments, these esters were successfully dissolved in water to which was added acetic acid until attaining pH 5 (in some cases pH 4.5). […] The propyl ester of carbidopa was solubilized under the same conditions and a clear solution of 100 mg/ml of the carbidopa propyl ester was obtained. A mixture of each of the above levodopa esters with carbidopa propyl ester was prepared at a ratio of 4:1 (levodopa ester/carbidopa ester) and a clear solution was obtained. The solution of the mixture was stable for at least two weeks based on chromatographic determination of levodopa esters and carbidopa ester. The formulations of the levodopa esters together with carbidopa ester were prepared in diluted acetic acid and ascorbic acid at a pH 5. Each one of the above mentioned esters have good stability.

Compound: N[C@@H](Cc1ccc(O)c(O)c1)C(=O)O [L- DOPA, L-3,4-dihydroxyphenylalanine]
dissolution of L-DOPA (in words) [1]: did not fully dissolve

Compound: CC(C)OC(=O)[C@@H](N)Cc1ccc(O)c(O)c1 [isopropyl ester]
solubility ([2]; pH 5, aqueous buffer, thermodynamic from solid): ≥ 400 mg/mL

Compound: CCCOC(=O)[C@@H](N)Cc1ccc(O)c(O)c1 [propyl ester]
soluble at a concentration of / clear solution obtained ([2]; pH 5): ≥ 400 mg/mL

Other lines, results leading:

soluble at a concentration of / clear solution obtained ([2]; water with acetic acid added until pH 5 (in some cases pH 4.5)): ≥ 100 mg/mL
Compound: CCCOC(=O)C(C)(Cc1ccc(O)c(O)c1)NN (centres unmarked) [carbidopa propyl ester]

relative solubility among the levodopa esters (in words) [2]: highest solubility
Compound: CCOC(=O)[C@@H](N)Cc1ccc(O)c(O)c1 [ethyl ester]
